Data: the supplement of paper PMC10290057

Assays:
HCT116 [1] = test: AC50 cell viability (CellTiter-Glo); higher = less potent; conditions: 48 h
HCT116 [2] = test: efficacy (fitted maximal change in viability relative to DMSO control); higher = less cytotoxic (negative = loss of viability); conditions: 48 h
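Throughout, for AC50 cell viability (CellTiter-Glo): HCT116 colorectal carcinoma cells screened at five concentrations per compound, luminescent viability scaled between DMSO wells and empty wells on each plate, curves fitted per compound.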
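Throughout, for efficacy (fitted maximal change in viability relative to DMSO control): Luminescence-based viability readout, five doses per compound, normalized against on-plate DMSO and empty-well controls, followed by dose-response curve fitting for every drug.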

Compound | AC50 cell viability (HCT116 [1]) [µM] | efficacy (HCT116 [2]) [%]
CCOC1=CC(=CC=C1C/2=N/[C@@](C)(C3=CC=C(Cl)C=C3)[C@](C)(N2C(=O)N4CCN(CC4)CC(=O)N5CCOCC5)C6=CC=C(Cl)C=C6)C(C)(C)C | 9.17 | -114
Cc1ccc(Nc2ncc3c(n2)N(C)C(=O)N(c2cc(NC(=O)c4cccc(C(F)(F)F)c4)ccc2C)C3)cn1 [GNF-7] | 0.0332 | -69.3
Cc1ccc(-n2c(C)cc(-c3nnc4n3CCCCC4)c2C)cc1 | 20.9 | -47.3
O=C(NOCCO)c1ccc2cncn2c1Nc1ccc(I)cc1F [GDC-0623] | 11.8 | -43.9
Cc1ccc(-n2nc(C(C)(C)C)cc2NC(=O)Nc2ccc(OCCN3CCOCC3)c3ccccc23)cc1 [Doramapimod] | 20.9 | -76.9
CC(C)(O)CNc1nc(Nc2ccnc(C(F)(F)F)c2)nc(-c2cccc(C(F)(F)F)n2)n1 [Enasidenib] | 18.6 | -71.3
C=CC(=O)Nc1cccc(Oc2nc(Nc3ccc(N4CCN(C)CC4)c(F)c3)nc3[nH]ccc23)c1 [Avitinib] | 13.2 | -123
CCCCOC(=O)N[S+](=O)([O-])c1sc(CC(C)C)cc1-c1ccc(Cn2ccnc2)cc1 [M-024] | 18.6 | -84.4
CCc1cc(C(N)=O)ccc1-n1nc(C(C)C)c2c(-n3cnc(-c4cnn(C)c4)c3)ccnc21 [TAS-116] | 1.05 | -65.3
CC(C)[C@]12O[C@H]1[C@@H]3O[C@@]34[C@@]5(C)CC\C6=C(COC6=O)/[C@@H]5C[C@@H]7O[C@]47C2=O [Triptonide] | 0.0295 | -59.2
c1ccc(-c2oc3ncnc(NC[C@@H]4CCCO4)c3c2-c2ccccc2)cc1 [AIM-100] | 9.34 | -69.3
O=C1Nc2cc(Br)ccc2/C1=C1/Nc2ccccc2/C1=N\O [BIO] | 10.5 | -102
CN(C)c1ccc2cc(C(=O)N[C@@H](CCCNC(=N)CCl)C(=O)NCc3ccccc3)ccc2c1 [YW3-56] | 20.9 | -56.2
CCN1CCN(CC1)CC(=O)NC2=CC=C(C3=C2C4=C(S3)C=CC=C4)C5=C6O\C(=C/C(=O)C6=CC=C5)N7CCOCC7 | 1.29 | -81.5
COc1ccc(C[C@@H](C)[C@@H](C)Cc2ccc(OC)c(OC)c2)cc1OC [Terameprocol] | 1.05 | -51.5
c1cc(N[C@@H]2CCNC2)nc(-c2cnc3ccc(-c4cn[nH]c4)cn23)c1 | 7.42 | -59.7
CC(C)c1cc(C(=O)N2Cc3ccc(CN4CCN(C)CC4)cc3C2)c(O)cc1O [Onalespib] | 0.118 | -54.3
COc1ccc2cc(-c3[nH]c(-c4ccc([S+](C)[O-])cc4)nc3-c3ccncc3)ccc2c1 (stereo unspecified) [Tie-2 kinase Inhibitor] | 23.5 | -89.1
CSc1ccc(C(=O)/C=C/c2cc(C)c(OC(C)(C)C(=O)O)c(C)c2)cc1 [Elafibranor] | 30.3 | -75.5
CCCCCCC(C)(C)C1=CC2=C([C@H]3CC(=C/CC3C(C)(C)O2)\CO)C(=C1)O (stereo partly specified) [Dexanabinol] | 8.33 | -93.9
C[S+](=O)([O-])c1ccc([C@@H](CC2CCCC2)C(=O)Nc2nccs2)cc1 [Ro-28-1675] | 23.5 | -67.1
CC(C)NC(=O)[C@H]1CC[C@@H](n2c(NC(=O)c3ccc(F)cc3)nc3ccc(CN4CCC(C(C)(C)O)CC4)cc32)CC1 [Belizatinib] | 7.23 | -92.8
CC[S+]([O-])(=O)NC1=CC(=C(OC2=C(F)C=C(F)C=C2)C=C1)\C3=C\N(C)C(=O)C4=C3C=C[NH]4 [Mivebresib (ABBV-075)] | 0.0525 | -97.5
